The record followed here is ChEMBL document CHEMBL3872232, “2-Azetidinones: Synthesis and biological evaluation as potential anti-breast cancer agents” (Eur J Med Chem, 2016).

Each structure is given as a SMILES string.

Assay [1] can be described thus: Antiproliferative activity against human MDA-MB-231 cells after 48 hrs by MTT assay. The assay is classed as functional, cell-based. As to conditions: MDA-MB-231, 48 h. For orientation: Formazan colour is commonly taken as a measure of viable cells.
Assay [2] is described as follows: Antiproliferative activity against human mammary epithelial cells after 48 hrs by MTT assay. The class given is cell-based, Epithelial cell.
Assay [3] is described as follows: Antiproliferative activity against human MCF7 cells after 48 hrs by MTT assay. The assay is classed as functional, cell-based. The conditions noted are these: MCF7, 48 h.
[4] abbreviates: Homo sapiens, Epithelial cell, 48 h, read-out: IC50.

Consider `COC(=O)/C(=C/c1ccccc1)CN1C(=O)[C@@H](OC)[C@H]1c1ccc(F)cc1`, for which the IC50 (in general, the concentration needed to halve the response being measured) amounted to 21.8 µM in assay [1], 27.9 µM in assay [2] (setting [4]) and 15.6 µM in assay [3].

On to `CO[C@@H]1C(=O)N(C/C(C#N)=C/c2ccccc2)[C@@H]1c1ccc(Cl)cc1Cl`, for which the IC50 is 17 µM in assay [1], > 100 µM in assay [2] (setting [4]) and 31.9 µM in assay [3].

Regarding `COC(=O)/C(=C/c1ccccc1)CN1C(=O)[C@@H](OC)[C@H]1c1cccc(C(F)(F)F)c1`, the values for the IC50 in assay [1] and in assay [2] (setting [4]) were 18.2 µM and 71.8 µM, respectively.

Take `COC(=O)/C(=C/c1ccccc1)CN1C(=O)[C@@H](OC)[C@H]1c1ccccc1`: the 50% inhibitory concentration (IC50) was 11.1 µM in assay [1], “Non-Toxic” in assay [2] (epithelial cell) and 12.9 µM in assay [3].

Turning to `COC(=O)/C(=C/c1ccccc1)CN1C(=O)[C@@H](OC)[C@H]1c1cccc([N+](=O)[O-])c1`, the IC50 was 14.4 µM in assay [1], “Non-Toxic” in assay [2] (epithelial cell) and 15 µM in assay [3].

Turning to `CCOC(=O)/C(=C/c1ccccc1)CN1C(=O)[C@@H](OC)[C@H]1c1ccc(Cl)cc1`, the 50% inhibitory concentration (IC50) in assay [1] was 11.1 µM; in assay [2] (epithelial cell), “Non-Toxic”; in assay [3] it was 12.7 µM.

`COC(=O)/C(=C/c1ccccc1)CN1C(=O)[C@@H](OC)[C@H]1c1ccc(Cl)cc1`: the results for the IC50 in assay [1], in assay [2] (setting [4]) and in assay [3] were 15.6 µM, 37.9 µM and 15.2 µM, respectively.

Turning to `COC(=O)/C(=C/c1ccccc1)CN1C(=O)[C@@H](OC)[C@H]1c1ccc(Cl)cc1Cl`, the IC50 was found to be 19 µM in assay [1] and 70 µM in assay [2] (setting [4]).

`CO[C@@H]1C(=O)N(C/C(C#N)=C/c2ccccc2)[C@@H]1c1ccc2c(c1)OCO2`: the IC50 in assay [2] (setting [4]) was > 100 µM; in assay [3] it was 10.6 µM.

`CO[C@@H]1C(=O)N(C/C(C#N)=C/c2ccccc2)[C@@H]1c1cccc(C)c1`: the IC50 is 11.1 µM in assay [1], “Non-Toxic” in assay [2] (epithelial cell) and 11.3 µM in assay [3].

For `COc1ccc(OC)c([C@@H]2[C@H](OC)C(=O)N2C/C(C#N)=C/c2ccccc2)c1`, the figures for the IC50 in assay [1] and in assay [2] (setting [4]) were 23.4 µM and > 100 µM, respectively.

`COC(=O)/C(=C/c1ccccc1)CN1C(=O)[C@@H](OC)[C@H]1c1cccc(Cl)c1`: the IC50 result in assay [2] (epithelial cell) was “Non-Toxic”; in assay [3], 25.1 µM.

For `COC(=O)/C(=C/c1ccccc1)CN1C(=O)[C@@H](OC)[C@H]1c1ccc(OC)cc1`, the IC50 in assay [1] is 14 µM; in assay [2] (epithelial cell), “Non-Toxic”; in assay [3], 11.6 µM.

With `CO[C@@H]1C(=O)N(C/C(C#N)=C/c2ccccc2)[C@@H]1c1ccc(Cl)cc1`, the results for the IC50 in assay [1], in assay [2] (epithelial cell) and in assay [3] were 18 µM, “Non-Toxic” and 19.8 µM, respectively.

Regarding `CO[C@@H]1C(=O)N(C/C(C#N)=C/c2ccccc2)[C@@H]1c1ccccc1Br`, the IC50 in assay [1] was 10.7 µM; in assay [2] (epithelial cell), “Non-Toxic”; in assay [3] it was 10.8 µM.

On to `COC(=O)/C(=C/c1ccccc1)CN1C(=O)[C@@H](OC)[C@H]1c1ccccc1C(F)(F)F`, for which the half-inhibitory concentration (IC50) in assay [1] is 17.6 µM; in assay [2] (epithelial cell), “Non-Toxic”.

For the molecule `COC(=O)/C(=C/c1ccccc1)CN1C(=O)[C@@H](OC)[C@H]1c1cccc(F)c1`, the IC50 in assay [1] turned out to be 34.4 µM; in assay [2] (setting [4]), 38.5 µM; in assay [3], 13.7 µM.

Turning to `CO[C@@H]1C(=O)N(C/C(C#N)=C/c2ccccc2)[C@@H]1c1cccc2ccccc12`, the IC50 result in assay [2] (epithelial cell) is “Non-Toxic”; in assay [3], 11.7 µM.

In the case of `CO[C@@H]1C(=O)N(C/C(C#N)=C/c2ccccc2)[C@@H]1c1ccc(Br)cc1`, the IC50 result in assay [2] (epithelial cell) was “Non-Toxic”.

Consider `CCOC(=O)/C(=C/c1ccccc1)CN1C(=O)[C@@H](OC)[C@H]1c1cccc([N+](=O)[O-])c1`, for which the IC50 in assay [1] was 14.4 µM; in assay [2] (epithelial cell), “Non-Toxic”; in assay [3], 19.9 µM.

`CCOC(=O)/C(=C/c1ccccc1)CN1C(=O)[C@@H](OC)[C@H]1c1ccc(F)cc1`: the IC50 is 14 µM in assay [1], “Non-Toxic” in assay [2] (epithelial cell) and 18.8 µM in assay [3].
